Several values for one entry are separate records, joined by “and”; a condition that tells them apart may be missing. Identical values can stand only once.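 Each compound was tested at five concentrations against cells in 96-well plates for 48 hours. GI50 = concentration required for 50% inhibition of growth. TGI denotes the concentration required for complete inhibition of growth.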 Where a SMILES comes first, the peptide text is derived from it. [ ]: non-standard residue; d: D form. The star is where a group is joined. Bn2Val = CC(C)[C@@H](C(=O)*)N(Cc1ccccc1)Cc1ccccc1; NH(3,4-diMeO-benzyl) = COc1ccc(CN*)cc1OC; NMeV = CN[C@H](C(=O)O)C(C)C; dNMeA = CN[C@H](C)C(=O)O
How the values were obtained:
Assay in all cases: NCI anticancer screen, dose series, 48 h
HOP-92 NSCLC = system: HOP-92 NSCLC
UACC-257 melanoma = system: UACC-257 melanoma
SW-620 colon = system: SW-620 colon
HT29 colon = system: HT29 colon
SF-539 CNS = system: SF-539 CNS
HS 578T breast = system: HS 578T breast
OVCAR-8 ovarian = system: OVCAR-8 ovarian
T-47D breast = system: T-47D breast
HL-60(TB) leukemia = system: HL-60(TB) leukemia
SF-268 CNS = system: SF-268 CNS

Compound | GI50 (HOP-92 NSCLC) [µM] | TGI (HOP-92 NSCLC) | GI50 (UACC-257 melanoma) [µM] | TGI (UACC-257 melanoma) | GI50 (SW-620 colon) [nM] | TGI (SW-620 colon) | GI50 (HT29 colon) [µM] | TGI (HT29 colon) | GI50 (SF-539 CNS) [µM] | TGI (SF-539 CNS) | GI50 (HS 578T breast) [µM] | TGI (HS 578T breast) [µM] | GI50 (OVCAR-8 ovarian) [µM] | TGI (OVCAR-8 ovarian) | GI50 (T-47D breast) [nM] | TGI (T-47D breast) | GI50 (HL-60(TB) leukemia) [nM] | TGI (HL-60(TB) leukemia) | GI50 (SF-268 CNS) [µM] | TGI (SF-268 CNS)
O=C1c2ccccc2C(=O)c2c1ccc1[nH]c(CCl)nc21 | 1.58 | 6.26 µM | 4.23 | 15.1 µM | 1560 | 3.3 µM | 1.89 | 4.77 µM | 3.16 | 11.6 µM | 2.94 | 14.7 | 3.68 | 15.7 µM | 1960 | 4.37 µM | 2640 | 7 µM | 2.22 | 8.1 µM
Cn1cc(C2=C(c3ccc(OC[C@@H](O)CO)cc3)C(=O)NC2=O)c2ccccc21 | > 25 | > 25 µM | > 25 | > 25 µM | > 25000 | > 25 µM | > 25 | > 25 µM | > 25 | > 25 µM | 7.87 | > 25 | > 25 | > 25 µM | > 25000 | > 25 µM | > 25000 | > 25 µM | > 25 | > 25 µM
CN(C)c1ccc2c(c1)oc(=O)c1ccccc12 | – | 30 µM | – | 28.3 µM | – | 23.4 µM | – | 26.1 µM | – | 35.5 µM | – | 97.2 | – | 25.4 µM | – | 28.4 µM | – | 20.3 µM | – | 22.7 µM
COc1cc2c(c(OC)c1OC)-c1ccc(NCc3ccccc3)c(=O)cc1[C@@H](NC(C)=O)CC2 | 0.318 | 4.1 µM | 0.671 | 37.5 µM | 391 | > 100 µM | 0.373 | 11.9 µM | 0.309 | 3.51 µM | 0.362 | 43 | 0.444 | 65 µM | 589 | 41.5 µM | 353 | – | 0.788 | > 73.5 µM
Cc1c(N2C(=O)/C(=C\c3ccccc3O)N=C2c2ccccc2)c(=O)n(-c2ccccc2)n1C | 17.6 | 68.4 µM | > 100 | > 100 µM | > 100000 | > 100 µM | > 100 | > 100 µM | 33.5 | > 100 µM | 27.9 | 75.3 | 63.2 | > 100 µM | 16300 | > 100 µM | > 100000 | > 100 µM | 29.8 | > 100 µM
N#Cc1nc(-c2ccc(F)cc2)oc1S(=O)(=O)N1CCOCC1 | 2.66 | 9.48 µM | 7 | 20.7 µM | 1570 | 3.24 µM | 3.11 | > 100 µM | 1.88 | 4.02 µM | 15.1 | 45.4 | 4.71 | 30.2 µM | 2110 | 5.23 µM | 1910 | 4.76 µM | 11 | 25.4 µM
CCOC(=O)c1cc(-c2ccc([N+](=O)[O-])cc2)n(-c2ccc(C(=O)O)c(O)c2)c1C | 2.09 | 13.4 µM | 9.2 | 22 µM | 4760 | 16.8 µM | 3.23 | 13.3 µM | 10.6 | 22.5 µM | 3.64 | 17 | 5.29 | 43.7 µM | 2810 | 11.4 µM | 4940 | 48.4 µM | 4.69 | 19.6 µM
CC1=C2[C@@H](CC1)[C@]1(C)O[C@@](C(C)C)(C[C@H]1OC(=O)[C@H](C)O)[C@H]2OC(=O)/C=C/c1ccccc1 | 5.95 | 19.4 µM | 17 | 34.1 µM | 16400 | 33.9 µM | 13.6 | 30 µM | 15 | 30.9 µM | 0.0529 | 0.378 | 0.451 | 16.6 µM | 5380 | 22.4 µM | 13500 | 39.5 µM | 2.13 | 23.1 µM
C[C@@H]1Cc2c([nH]c3ccccc23)[C@@H](c2c(F)cc(/C=C/C(=O)O)cc2F)N1CC(C)(C)F | 15 | 30.8 µM | 21.7 | 49.7 µM | 12500 | 29 µM | 14.5 | 31.3 µM | 14.5 | 32.4 µM | 12.8 | 45.4 | 11.9 | 38.4 µM | 91.6 | 51.3 µM | 15800 | 39.4 µM | 14.2 | 31.8 µM
Cc1c(Cl)cccc1Nc1ncccc1C(=O)O | 41.6 | > 100 µM | > 100 | > 100 µM | > 100000 | > 100 µM | > 100 | > 100 µM | 77.2 | > 100 µM | 63.1 | > 100 | > 100 | > 100 µM | 68000 | > 100 µM | > 100000 | > 100 µM | > 100 | > 100 µM
COc1cc2c(NCCCCCCO[N+](=O)[O-])ncnc2c(OC)c1OC | – | 47.1 µM | – | 36.5 µM | – | 70.5 µM | – | > 62 µM | – | 71.1 µM | – | > 87.4 | – | 64.4 µM | – | > 93.2 µM | – | 54.8 µM | – | > 100 µM
O=[n+]1c(CBr)c(CBr)n([O-])c2ccccc21 | 4.61 | 17.8 µM | 13.6 | 27.6 µM | 1860 | 3.69 µM | 1.91 | 3.49 µM | 13.3 | 26.3 µM | 17 | 45.3 | 15.2 | 31 µM | 2580 | 6.8 µM | 2260 | 5.8 µM | 15.9 | 33.6 µM
NS(=O)(=O)c1ccc(-n2nc(-c3ccc(Br)cc3)ccc2=O)cc1 | > 10 | > 10 µM | > 10 | > 10 µM | > 10000 | > 10 µM | > 10 | > 10 µM | > 10 | > 10 µM | > 10 | > 10 | > 10 | > 10 µM | > 10000 | > 10 µM | > 10000 | > 10 µM | > 10 | > 10 µM
CCN1CCN(c2nc(NCCNc3ccnc4cc(Cl)ccc34)c3ccccc3n2)CC1 | 1.14 | 2.49 µM | 2.62 | 4.8 µM | 707 | 5.14 µM | 0.793 | 7.47 µM | 1.83 | 3.36 µM | 2.19 | 7.36 | 1.89 | 5.96 µM | 1920 | 4.42 µM | 2010 | 4.01 µM | 2.51 | 13.3 µM
COc1ccc(CNC(=O)[C@@H](C)N(C)C(=O)[C@@H]2CCCN2C(=O)[C@H](C(C)C)N(C)C(=O)[C@@H](NC(=O)[C@H](C(C)C)N(Cc2ccccc2)Cc2ccccc2)C(C)C)cc1OC (Bn2Val-V[NMeV]P[dNMeA]-{NH(3,4-diMeO-benzyl)}) | 10.2 | 16.9 µM and 23.4 µM | 10.2 | 21.8 µM and 23.5 µM | – | 41.7 µM and 38 µM | 3.08 | 12.2 µM and 10.6 µM | 5.23 | 16.6 µM and 17.8 µM | 19.5 | – | 16.3 | 50 µM and > 100 µM | – | 50 µM and 81.1 µM | – | 11 µM and 9.45 µM | 17.6 | 14.8 µM and > 100 µM
OC(c1cccc(C(F)(F)F)c1)c1cnccc1NC1CCCCCC1 (stereo not drawn) | 1.32 | 3.88 µM | 2.36 | 4.66 µM | 1720 | 3.37 µM | 1.78 | 3.72 µM | 1.71 | 3.15 µM | 2.04 | 5.57 | 2.1 | 4.59 µM | 1790 | 4.82 µM | 2130 | 4.47 µM | 3.29 | 13.8 µM
COc1cc2c(c(O)c1C)C(=O)C(Cl)=CC2=O | – | 11.5 µM | – | 18.7 µM | – | 8.29 µM | – | 21.9 µM | – | 33.5 µM | – | 97.4 | – | 45 µM | – | 5.22 µM | – | 5.57 µM | – | 40 µM
COc1ccc(-n2cc(-c3ccc(OC)c(OC)c3)[nH]c2=S)cc1Cl | 37.3 | > 100 µM | – | – | > 100000 | > 100 µM | > 100 | > 100 µM | 39.4 | > 100 µM | 38.9 | > 100 | – | – | > 100000 | > 100 µM | > 100000 | > 100 µM | 58.7 | > 100 µM
CNC(=O)c1cc(Oc2ccc3c(c2)sc2nc(-c4ccc(N)cc4)cn23)ccn1 | 5.98 | > 100 µM | – | – | 153 | > 100 µM | 0.197 | 0.802 µM | 0.324 | > 100 µM | 0.224 | > 100 | 0.39 | > 100 µM | 397 | 57.6 µM | 108 | – | 0.791 | > 100 µM
